Key:
Aspc-1 cells = experiment: Cell proliferation study (Cell Titer Glo, 72 hours); format: cell-based; conditions: Homo sapiens, ASPC1, read-out: IC50, inhibitory effect on cellular proliferation
Method: Aspc-1 (Cobioer, CBP60546) cells were grown in RPMI 1640 (Gibco, 61870127) supplemented with 10% fetal bovine serum (Gibco, 10099141), 1% penicillin-streptomycin (Gibco, 15070-063). Aspc-1 cells in exponential growth phase were seeded into 96-well plate (Corning, 3599) at density of 4×10^3/well. Cells were cultured overnight at 37° C. with 5% CO2. On the next day, cells were treated with compound at various concentrations for 72 hours in 37° C., 5% CO2 incubator (final DMSO concentration is 0.1%). After treatment, the cell plates were added 100 μL Cell Tier Glo (Promega, G7573) to every well and incubated at RT for 10 minutes. Cell growth status was measured with Cell Tier Glo (Promega, G7573) following manufacturer's directions. The inhibition curve was obtained with GraphPad 7.0 software using four-parameter equation.

KRAS^G12D protein = biological target: T1, KRAS^G12D protein (Homo sapiens, UniProt P01116, G12D); experiment: Protein degradation study (western blot) in Aspc-1 cells; format: cell-based; conditions: for inhibition at 0.005 µM / inhibition at 0.05 µM / inhibition at 0.001 µM: ASPC1, 24 h, 24 hours, read-out: Rate of degradation; for inhibition at 0.005 µM: Aspc-1 cells treated with 0.005 μM compound; for inhibition at 0.05 µM: Aspc-1 cells treated with 50 nM compound; for DC50: Aspc-1 cells, half-maximum degradation concentration, read-out: DC50 of compounds induced Ras G12D protein degradation; for inhibition at 0.001 µM: Aspc-1 cells treated with 1 nM compound
T1 construct: host or cells: Aspc-1 (AsPC-1) cells
T1 sequence (P01116 1-188 isoform P01116-2 G12D): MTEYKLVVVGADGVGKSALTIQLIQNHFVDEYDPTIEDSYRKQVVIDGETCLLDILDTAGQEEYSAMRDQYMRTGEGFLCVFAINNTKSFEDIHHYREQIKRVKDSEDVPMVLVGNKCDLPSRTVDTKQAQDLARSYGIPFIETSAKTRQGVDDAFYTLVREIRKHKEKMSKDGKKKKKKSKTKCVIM
Method: Aspc-1 (Cobioer, CBP60546) cells in exponential growth phase were inoculated on a 6-well cell culture plate (Corning, 3516) at density of 1E6/well; and cells in the plate were cultured in 37° C. incubator containing 5%-carbon dioxide. The next day, testing compounds were dissolved in DMSO (Sigma, RNBF5902) for the preparation of a 10-mM concentration stock solution. The stock solution was diluted with complete medium (RPMI-1640 supplemented with 10% fetal bovine serum, 1% penicillin-streptomycin), yielding working solutions of various concentrations. The plate, after the addition of compounds, was placed in a 5% carbon dioxide incubator, and incubated at 37° C. for 24 hours (final DMSO concentration was 0.1%). The plate was then removed from the incubator, and the cells were washed twice with precooled PBS (Gibco, 14190250), followed by addition of 80-μL RIPA lysis buffer (containing protease inhibitor (Invitrogen™, AM2696)) to each well. The adherent cells were scraped off with a cell scraper, and the cell lysate was transferred to a 1.5-mL centrifuge tube followed with a 30-minute incubation on ice. The lysate was then clarified with centrifugation at 14000 rpm for 10 min at 4° C. The supernatant was transferred into a new 1.5-mL centrifuge tube, and protein concentration was measured with BCA protein detection kit (Thermo Fisher, 23225). G12D protein level was assessed by western blot.
A mixture of cell lysate (40 μL) and loading buffer (10 μL, 5×SDS (Beyotime, P0015L)) was denatured in a water-bath at 95° C. for 10 min. The denatured protein sample, at 30 μL/well, was loaded into corresponding well of 4-20% Bis-Tris gel (Kingsley, M00656). Protein samples were initially electrophoresed at 80 V for 30 minutes, followed by 120 V for 40 minutes, until the bromophenol blue strip ran to an appropriate position. After electrophoresis, iBlot2 (Life Technologies, IB21001) was used to transfer the separated samples onto PVDF film. The PVDF membrane was washed with double-distilled water and then blocked in TBST (Thermo Scientific, 28360) buffer containing 5% non-fat milk, for 2 hours. Blocked membrane was rinsed with tris-buffered saline tween-20 (Thermo Scientific, 28360, TBST) three times, 10 minutes each. Membrane was then incubated with 1:1000 diluted KRAS primary antibody (CST, cat #14429S) overnight at 4° C. Membrane was rinsed in a way described previously followed by 1 hour incubation of secondary antibody at room temperature. After washing the film for three times with TBST, ECL color developing solution was applied, and image was captured with Biorad Chemi Doc gel imager. The band gray value was quantified (Image Lab), and protein degradation level was calculated according to the following formula:
Level of RAS protein expression=(RAS-compound/GAPDH)/(RAS-DMSO/GAPDH)
Level of degradation (%)=(1−Rate of RAS protein expression)×100
Symbols of −, +, ++, +++ indicate that the degradation level of Ras protein induced by testing compounds are […], 11 to 30%, 31 to 60% and greater than 60%, respectively.
Half-maximum degradation concentrations (DC50s) of testing compounds were calculated using GraphPad Prism and their values were shown in Table 6. Symbols of […] represent DC50s equal or less than 10 nM, 11-50 nM, 51-100 nM, and 101-200 nM, respectively.

| SMILES | IC50 (Aspc-1 cells) [nM] | inhibition at 0.005 µM (KRAS^G12D protein) [%] | inhibition at 0.05 µM (KRAS^G12D protein) [%] | DC50 (KRAS^G12D protein) [nM] | inhibition at 0.001 µM (KRAS^G12D protein) [%] |
| --- | --- | --- | --- | --- | --- |
| C#Cc1c(F)ccc2cc(O)cc(-c3ncc4c(N5CC6CCC(C5)N6)nc(OCC5(CN6CCC7(CC6)CC(N6CCC(c8ccc9c(N%10CCC(=O)NC%10=O)nn(C)c9c8)CC6)C7)CC5)nc4c3F)c12 [Compound 1a] | < 100 | > 60 | > 60 | < 10 |  |
| C#Cc1c(F)ccc2cc(O)cc(-c3ncc4c(N5CC6CCC(C5)N6)nc(OCC5(CN6CCC7(CC6)CC(N6CCC(c8cc9c(cc8F)c(N8CCC(=O)NC8=O)nn9C)CC6)C7)CC5)nc4c3F)c12 [Compound 2a] | < 100 | > 60 | > 60 | < 10 |  |
| C#Cc1c(F)ccc2cc(O)cc(-c3ncc4c(N5CC6CCC(C5)N6)nc(OCC5(CN6CCC7(CC6)CC(N6CCC(c8ccc(NC9CCC(=O)NC9=O)cc8F)CC6)C7)CC5)nc4c3F)c12 (centres unmarked) [Compound 12a] | < 100 | > 60 | > 60 | < 10 | > 60 |
| Nc1cc(Cl)c(C(F)(F)F)c(-c2ncc3c(N4CC5CCC(C4)N5)nc(OCC4(CN5CCC6(CC5)CC(N5CCC(c7ccc8c9c(cccc79)C(=O)N8C7CCC(=O)NC7=O)CC5)C6)CC4)nc3c2F)c1 (centres unmarked) [Compound 13a] | < 100 | > 60 | > 60 | < 10 | > 60 |
| C#Cc1c(F)ccc2cccc(-c3ncc4c(N5CC6CCC(C5)N6)nc(OCC5(CN6CCC7(CC6)CC(N6CCC(c8ccc9c%10c(cccc8%10)C(=O)N9C8CCC(=O)NC8=O)CC6)C7)CC5)nc4c3F)c12 (centres unmarked) [Compound 14a] | 101 to 1000 | > 60 | > 60 | < 10 | > 60 |
| C#Cc1c(F)ccc2cccc(-c3ncc4c(N5CC6CCC(C5)N6)nc(OCC5(CN6CCC7(CC6)CC(N6CCC(c8ccc9c(C%10CCC(=O)NC%10=O)nn(C)c9c8)CC6)C7)CC5)nc4c3F)c12 (centres unmarked) [Compound 16a] | 101 to 1000 | > 60 | > 60 |  |  |
| Cn1nc(C2CCC(=O)NC2=O)c2ccc(C3CCN(C4CC5(CCN(CC6(COc7nc(N8CC9CCC(C8)N9)c8cnc(-c9cc(N)cc(Cl)c9C(F)(F)F)c(F)c8n7)CC6)CC5)C4)CC3)cc21 (centres unmarked) [Compound 17a] | < 100 | > 60 | > 60 | < 10 |  |
| Nc1cc(Cl)c(C(F)(F)F)c(-c2ncc3c(N4CC5CCC(C4)N5)nc(OCC4(CN5CCC6(CC5)CC(N5CCC(c7ccc(NC8CCC(=O)NC8=O)cc7F)CC5)C6)CC4)nc3c2F)c1 (centres unmarked) [Compound 21a] | < 100 | 31 to 60 | > 60 | < 10 |  |
| C#Cc1c(F)ccc2cc(O)cc(-c3ccc4c(N5CC6CCC(C5)N6)nc(OCC5(CN6CCC7(CC6)CC(N6CCC(c8ccc9c(C%10CCC(=O)NC%10=O)nn(C)c9c8)CC6)C7)CC5)nc4c3F)c12 (centres unmarked) [Compound 23a] | < 100 | > 60 | > 60 | < 10 |  |
| C#Cc1c(F)ccc2cc(O)cc(-c3ncc4c(N5CC6CCC(C5)N6)nc(OCC5(CN6CCC7(CCC(C(=O)N8CCC(c9ccc%10c(C%11CCC(=O)NC%11=O)nn(C)c%10c9)CC8)CC7)CC6)CC5)nc4c3F)c12 (centres unmarked) [Compound 24a] | < 100 | > 60 | 31 to 60 | < 10 |  |
| C#Cc1c(F)ccc2cc(O)cc(-c3ncc4c(N5CC6CCC(C5)N6)nc(OCC5(CN6CCC7(CCC(CN8CCC(c9ccc%10c(C%11CCC(=O)NC%11=O)nn(C)c%10c9)CC8)CC7)CC6)CC5)nc4c3F)c12 (centres unmarked) [Compound 26a] | < 100 | > 60 | 11 to 30 | < 10 |  |
| C#Cc1c(F)ccc2cc(O)cc(-c3ncc4c(N5CC6CCC(C5)N6)nc(OCC5(CN6CCC7(CC6)CC(C(=O)N6CCC(c8ccc9c(C%10CCC(=O)NC%10=O)nn(C)c9c8)CC6)C7)CC5)nc4c3F)c12 (centres unmarked) [Compound 28a] | < 100 | > 60 | > 60 | < 10 |  |

— US20240059712A1, “BIFUNCTIONAL COMPOUNDS AND PHARMACEUTICAL USES THEREOF” (priority 2022, published 2024)
